Laboratory results published in patent EP0324328B1, “Use of the N-n-butyl derivative of desoxynojirimycin in the manufacture of a medicament inhibiting HIV-Virus” (priority 1987, dated 1989).
Like-named read-outs stand apart in the source and are kept apart here.

Legend:
[1] = tested on: T-45 cells; format: cell-based, human; conditions: for Estimated Cell Growth Virus-uninfected Day 7: no-drug control 1.2x10^6; for cytotoxicity: non-infected cells, over the concentration range used (Fig. 3, Table 1), result in words
Protocol: FIG. 1 is a schematic outline of the test procedure used to assess the cytotoxic effect of test compounds on T-cells either infected or non-infected with HIV and in parallel the HIV inhibitory activity of the test compounds. TCID is the tissue culture infectious dose. Cells were cultured in RPMI-1640 medium with 10% fetal calf serum containing 100 units/ml penicillin G and 100 µg/ml streptomycin.
(§1) The assay was run in 96 well plastic microtiter plates in which 0.2 ml of culture medium containing 10^4 T-cells are seeded into each well. RPMI-1640 supplemented with 10% fetal calf serum was used as the culture medium. In each assay, 6 wells are used. Three (1-3) are infected with 10^4 TCID/well of HIV-1 or HIV-2 and to the other three (4-6) culture medium alone is added. Medium is changed at the same intervals for each test compound. The detailed assay procedure is illustrated in Figures 1 and 2.
(§2) The efficacy of the test compounds used in this example was assessed as follows: 0.2 ml of culture medium containing 10^4 T-45 cells were transferred into each well of a 96-well flat-bottomed tissue-culture plastic plate and the cells were allowed to settle at 37°C (see Figure 1). After 4 hours the media were aspirated and replaced with media which contained the test compound. Following overnight incubation the media was aspirated and 10^4 TCID of virus (HIV-1 or HIV-2) was added to each well. Incubation was continued at 37°C in 5% CO2 for 1 hour. Thereafter, growth media containing the various compounds were added and incubation at 37°C was continued. On the fourth day the cell suspensions from each well were split and seeded into two new wells and 0.2 ml of fresh media with compounds was added. This was repeated on the seventh day. Cells were examined by microscopy during days 1 to 10 for the presence of syncytia, growth rate and the appearance of the cytopathic effect (CPE) (giant cells, pycnotic nuclei, loss of refractility). CPE (100%) was defined as no round, refractile, uniform cells remaining; only giant, ballooned pyknotic cells were present. The viability of HIV infected cultures was determined by a rough count/estimate of cells which underwent CPE in relation to round refractile uniform (normal) cells in a given culture.
Quantitative data on the effect of the various compounds on the non-infected cells (cytotoxicity) was obtained by comparison of their growth rate to control cells not exposed to drugs (Table 1). […] In addition, the MOLT-4 cell line was also used.

[2] = tested on: HIV-1; experiment: Virus titer (TCID) of HIV-1 infected T-cell cultures grown with test compound; format: cell-based; conditions: control 10^6; for HIV-1 (TCID): Table 2, 0.10 mg/ml, 10^4 T-45 or MOLT-4 cells (identical results), 10^4 TCID inoculum, after day 10; for VIRUS TITER HIV-1: Table 3, Example 2, 0.1 mg/ml, T-45 and MOLT-4 cells, 10^4 TCID on 10^4 cells
Protocol: Cell free suspensions of the HIV were prepared from infected cultures. The concentration of infectious particles was estimated on end-point titration assay using serial ten-fold dilutions. The approximate number of infectious particles in each preparation was determined by the highest dilution which contains infectious HIV as determined by synctial formation, cytopathicity [Leonard et al., Proc. Natl. Acad. Sci. USA 85, 3570-3574 (1988); Barre-Sinoussi et al., Science 220, 868-870 (1983)] and HIV antigen [Karpas et al., Lancet 1, 695-697 (1985)] synthesis after 10 days of culture with 10^4 T-cells. This represents the concentration of infectious particles, herein defined as the tissue culture infectious dose (TCID).
as §1
as §2, with “culture. Cells in wells which were incubated with compounds which appeared to inhibit or reduce HIV replication and in which there was marked cell proliferation were either transferred to larger wells (of a 24-well plate) or divided in order to maintain an approximate constant cell density to promote continuous cell division.” for “culture.”
That is, HIV-1 was first passaged in T-45 cells; likewise, HIV-1 was first passaged in MOLT-4 cells. The same passaging was done with HIV-2. The test compounds were used at a concentration of 0.1 mg/ml. 10^4 TCID of HIV-1 and separately of HIV-2 were used to infect 10^4 cells. Upon completion of the test, the virus titers were as follows: TABLE 3

[3] = tested on: HIV; experiment: Inhibition of HIV-associated cytopathic effect (CPE) in T-45 cells; format: cell-based; conditions: HIV infected T-45 cells, various concentrations (Fig. 3); result in words
Protocol: FIG. 3 is a graphical representation in which the inhibition of HIV associated CPE (―% CPE) reduction) and test compound-associated cytotoxicity (---% cell death) is plotted against the media concentration in mg/ml of several test compounds (drugs). The cell viability data was determined for non-HIV infected cells. The test compounds were the N-methyl-, N-ethyl-, and N-butyl derivatives of deoxynojirimycin (DNJ), castanospermine (Cast), N-(5-carboxymethyl-1-pentyl)-1,5-imino-L-fucitol (LFT) and 1,4-dideoxy-1,4-imino-L-arabinitol (LAB).
After a suitable period of incubation, the cultures are scored for the presence of so-called syncytial cells (giant cells). Typical examples of such a test for the evaluation of inhibitors of HIV have been disclosed by Fung et al., Bio/Technology 5, 940-946 (1987); Tyms et al., Lancet, October 31, 1987, pp. 1025-1026; Gruters et al., Nature 330, 74-77 (1987); and Walker et al., Proc. Natl. Acad. Sci. USA 84, 8120-8124 (1987).
as §2, with “culture. Cells in wells which were incubated with compounds which appeared to inhibit or reduce HIV replication and in which there was marked cell proliferation were either transferred to larger wells (of a 24-well plate) or divided in order to maintain an approximate constant cell density to promote continuous cell division.” for “culture.”

Row | Structure (SMILES) | Estimated Cell Growth Virus-uninfected Day 7 ([1]; Dosage 0.01 mg/ml) | Estimated Cell Growth Virus-uninfected Day 7 ([1]; Dosage 0.05 mg/ml) | Estimated Cell Growth Virus-uninfected Day 7 ([1]; Dosage 0.10 mg/ml) | cytotoxicity [1] | HIV-1 (TCID) [2] | VIRUS TITER HIV-1 [2] | effect on CPE formation [3] | Estimated Cell Growth Virus-uninfected Day 7 ([1]; Dosage 0.25 mg/ml) | Estimated Cell Growth Virus-uninfected Day 7 ([1]; Dosage 0.50 mg/ml)
1 | CCCCN1C[C@H](O)[C@@H](O)[C@H](O)[C@H]1CO [BuDNJ, N-n-butyl-deoxynojirimycin] | 1.2x10^6 | 1.2x10^6 | 1.4x10^6 | showed no cytotoxicity over the concentration range used | <10 TCID | 10 | completely prevented CPE in the HIV infected cells at all concentrations tested | – | –
2 | CN1C[C@H](O)[C@@H](O)[C@H](O)[C@H]1CO [MeDNJ, N-methyl-deoxynojirimycin] | 1.2x10^6 | 1.2x10^6 | 1.0x10^6 | cytotoxic | 10^2 TCID | 10^2 | bell shaped dose-dependence | 1.0x10^6 | 5.0x10^6
